According to patent publication US11739098B2 (BRISTOL-MYERS SQUIBB COMPANY, priority 2017, dated 2023):

How the values were obtained:
Type in all cases: cell-based
human TLR7 = target: T1, human TLR7 (Homo sapiens, UniProt Q9NYK1); assay: TLR7 inhibition reporter assay (HEK-Blue cells, SEAP reporter, gardiquimod stimulation); settings: HEK-Blue cells overexpressing human TLR7, SEAP reporter, gardiquimod 7.5 μM
T1 construct: host or cells: HEK-Blue cells (HEK293-derived reporter line)
T1 sequence (Q9NYK1 27-1049): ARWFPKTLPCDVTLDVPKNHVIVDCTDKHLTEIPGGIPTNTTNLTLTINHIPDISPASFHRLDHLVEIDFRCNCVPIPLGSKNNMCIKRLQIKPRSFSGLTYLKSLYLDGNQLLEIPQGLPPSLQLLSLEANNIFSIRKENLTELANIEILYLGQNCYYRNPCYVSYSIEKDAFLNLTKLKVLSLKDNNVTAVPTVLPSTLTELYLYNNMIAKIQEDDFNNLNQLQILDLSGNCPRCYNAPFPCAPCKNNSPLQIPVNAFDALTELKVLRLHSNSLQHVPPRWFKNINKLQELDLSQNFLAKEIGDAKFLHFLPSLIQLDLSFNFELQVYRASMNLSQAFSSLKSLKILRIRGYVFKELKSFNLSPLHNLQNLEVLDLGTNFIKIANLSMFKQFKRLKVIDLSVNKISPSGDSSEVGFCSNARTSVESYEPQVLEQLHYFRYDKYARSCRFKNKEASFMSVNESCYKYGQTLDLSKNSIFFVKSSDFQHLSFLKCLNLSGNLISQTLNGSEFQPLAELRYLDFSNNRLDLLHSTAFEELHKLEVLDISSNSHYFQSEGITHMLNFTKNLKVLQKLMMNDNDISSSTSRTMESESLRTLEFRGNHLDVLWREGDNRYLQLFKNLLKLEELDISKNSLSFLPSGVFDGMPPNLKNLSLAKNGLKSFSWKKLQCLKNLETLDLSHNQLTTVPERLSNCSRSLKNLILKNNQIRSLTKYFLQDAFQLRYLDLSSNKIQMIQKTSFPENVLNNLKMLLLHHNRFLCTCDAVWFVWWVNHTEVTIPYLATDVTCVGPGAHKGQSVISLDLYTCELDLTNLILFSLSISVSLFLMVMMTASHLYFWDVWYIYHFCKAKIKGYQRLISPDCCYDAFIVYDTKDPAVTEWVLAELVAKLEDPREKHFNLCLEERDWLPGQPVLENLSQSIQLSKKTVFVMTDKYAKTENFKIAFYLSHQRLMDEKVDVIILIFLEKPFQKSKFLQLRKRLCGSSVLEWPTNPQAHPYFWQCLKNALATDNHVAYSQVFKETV
Method in brief: (§1)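 HEK-Blue cells overexpressing human TLR7, TLR8 or TLR9 (NF-κB/AP-1-driven SEAP) pre-treated 30 min at room temperature with compound (0.05 nM–50 μM), then stimulated with gardiquimod 7.5 μM (TLR7), R848 15.9 μM (TLR8) or ODN2006 5 nM (TLR9). SEAP read colorimetrically after 22 h at 37 °C; % inhibition calculated.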

human TLR8 = target: T2, human TLR8 (Homo sapiens, UniProt Q9NR97); assay: TLR8 inhibition reporter assay (HEK-Blue cells, SEAP reporter, R848 stimulation); settings: HEK-Blue cells overexpressing human TLR8, SEAP reporter, R848 15.9 μM
T2 construct: host or cells: HEK-Blue cells (HEK293-derived reporter line)
T2 sequence (Q9NR97 27-1041): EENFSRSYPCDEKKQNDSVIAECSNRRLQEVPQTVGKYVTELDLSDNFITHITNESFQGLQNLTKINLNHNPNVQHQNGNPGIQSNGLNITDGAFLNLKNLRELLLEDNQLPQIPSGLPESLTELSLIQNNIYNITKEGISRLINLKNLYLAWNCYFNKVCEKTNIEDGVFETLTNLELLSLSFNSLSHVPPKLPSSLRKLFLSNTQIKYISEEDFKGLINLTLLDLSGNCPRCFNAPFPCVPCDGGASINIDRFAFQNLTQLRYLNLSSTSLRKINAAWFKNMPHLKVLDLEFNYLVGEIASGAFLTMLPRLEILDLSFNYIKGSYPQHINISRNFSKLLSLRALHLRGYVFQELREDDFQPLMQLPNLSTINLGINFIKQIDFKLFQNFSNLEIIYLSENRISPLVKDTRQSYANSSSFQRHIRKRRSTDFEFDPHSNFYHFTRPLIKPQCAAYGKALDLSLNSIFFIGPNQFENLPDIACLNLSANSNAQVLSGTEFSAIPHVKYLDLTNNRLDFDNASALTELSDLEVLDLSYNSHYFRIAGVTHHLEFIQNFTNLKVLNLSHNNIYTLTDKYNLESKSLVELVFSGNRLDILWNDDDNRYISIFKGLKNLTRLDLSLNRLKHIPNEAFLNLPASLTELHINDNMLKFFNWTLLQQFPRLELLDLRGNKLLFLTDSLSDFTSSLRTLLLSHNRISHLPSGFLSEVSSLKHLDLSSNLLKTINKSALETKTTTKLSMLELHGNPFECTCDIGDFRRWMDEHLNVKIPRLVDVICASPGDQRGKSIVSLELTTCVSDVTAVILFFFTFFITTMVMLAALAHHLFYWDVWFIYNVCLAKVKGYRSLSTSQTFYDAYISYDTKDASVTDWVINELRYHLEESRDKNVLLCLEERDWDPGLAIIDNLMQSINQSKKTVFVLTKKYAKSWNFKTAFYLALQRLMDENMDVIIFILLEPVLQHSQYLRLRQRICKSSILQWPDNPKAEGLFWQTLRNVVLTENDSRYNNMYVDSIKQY
Method in brief: as §1

human TLR9 = target: T3, human TLR9 (Homo sapiens, UniProt Q9NR96); assay: TLR9 inhibition reporter assay (HEK-Blue cells, SEAP reporter, ODN2006 stimulation); settings: HEK-Blue cells overexpressing human TLR9, SEAP reporter, ODN2006 5 nM
T3 construct: host or cells: HEK-Blue cells (HEK293-derived reporter line)
T3 sequence (Q9NR96 26-1032): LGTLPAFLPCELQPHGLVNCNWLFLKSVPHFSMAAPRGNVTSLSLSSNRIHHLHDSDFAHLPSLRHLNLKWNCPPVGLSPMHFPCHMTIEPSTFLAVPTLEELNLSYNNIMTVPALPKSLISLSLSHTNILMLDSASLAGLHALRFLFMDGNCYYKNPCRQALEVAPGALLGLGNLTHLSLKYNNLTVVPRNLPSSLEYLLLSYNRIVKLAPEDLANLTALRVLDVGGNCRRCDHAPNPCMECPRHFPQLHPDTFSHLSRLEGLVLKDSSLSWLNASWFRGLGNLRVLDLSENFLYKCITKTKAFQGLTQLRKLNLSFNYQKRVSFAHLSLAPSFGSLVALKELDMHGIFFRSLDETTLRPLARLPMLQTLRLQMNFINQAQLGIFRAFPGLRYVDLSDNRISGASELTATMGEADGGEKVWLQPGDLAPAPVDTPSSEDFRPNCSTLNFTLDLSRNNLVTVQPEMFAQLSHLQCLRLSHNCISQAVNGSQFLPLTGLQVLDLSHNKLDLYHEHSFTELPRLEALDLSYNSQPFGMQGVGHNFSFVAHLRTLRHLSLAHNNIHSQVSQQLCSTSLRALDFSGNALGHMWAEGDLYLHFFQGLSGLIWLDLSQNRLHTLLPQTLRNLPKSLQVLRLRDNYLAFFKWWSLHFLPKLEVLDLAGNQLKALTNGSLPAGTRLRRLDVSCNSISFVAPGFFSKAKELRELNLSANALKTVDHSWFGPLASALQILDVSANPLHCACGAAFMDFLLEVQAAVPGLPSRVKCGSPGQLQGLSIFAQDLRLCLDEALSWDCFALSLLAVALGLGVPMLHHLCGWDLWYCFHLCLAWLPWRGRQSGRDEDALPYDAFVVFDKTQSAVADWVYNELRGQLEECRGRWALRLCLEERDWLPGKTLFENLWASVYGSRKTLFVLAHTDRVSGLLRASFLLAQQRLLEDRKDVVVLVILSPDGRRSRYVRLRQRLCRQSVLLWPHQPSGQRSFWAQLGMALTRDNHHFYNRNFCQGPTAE
Method in brief: as §1

Row | Compound | IC50 (human TLR7) [nM] | IC50 (human TLR8) [nM] | IC50 (human TLR9) [nM]
1 | Cc1cc2nnnn2cc1-c1[nH]c2ccc(C3CCN(C(=O)CN(C)C)CC3)cc2c1C(C)C [Example 486, 2-(dimethylamino)-1-(4-(3-isopropyl-2-(7-methyltetrazolo[1,5-a]pyridin-6-yl)-1H-indol-5-yl)piperidin-1-yl)ethan-1-one] | < 100 | 100 to 1000 | 1000 to 50000
2 | CC(C)c1c(-c2ccc3onc(N)c3c2)[nH]c2ccc(C3CCNCC3)cc12 [Example 7, 5-(3-isopropyl-5-(piperidin-4-yl)-1H-indol-2-yl)benzo[d]isoxazol-3-amine] | < 100 | < 100 | 100 to 1000
3 | CNC(=O)CN1CCC(c2ccc3[nH]c(-c4nn5ncnc5c(C)c4C)c(C(C)C)c3c2)CC1 [Example 279, 2-(4-(2-(7,8-dimethyl-[1,2,4]triazolo[1,5-b]pyridazin-6-yl)-3-isopropyl-1H-indol-5-yl)piperidin-1-yl)-N-methylacetamide] | < 100 | < 100 | 1000 to 50000
4 | Cc1nc2c(-c3[nH]c4ccc(C5CCNCC5)cc4c3C(C)C)cccn2n1 [Example 153, 8-(3-isopropyl-5-(piperidin-4-yl)-1H-indol-2-yl)-2-methyl-[1,2,4]triazolo[1,5-a]pyridine] | < 100 | < 100 | 1000 to 50000
5 | Cc1cn2cc(-c3[nH]c4ccc(C5CCN(C(=O)CC(C)(C)O)CC5)cc4c3CC(F)F)ccc2n1 [Example 607, 1-(4-(3-(2,2-difluoroethyl)-2-(2-methylimidazo[1,2-a]pyridin-6-yl)-1H-indol-5-yl)piperidin-1-yl)-3-hydroxy-3-methylbutan-1-one] | 100 to 1000 | 1000 to 50000 | > 50000
6 | COCC(CO)N1CCC(c2ccc3[nH]c(-c4cc(C)n5ccnc5c4)c(C(C)C)c3c2)CC1 (stereo not drawn) [Example 754, 2-(4-(3-isopropyl-2-(5-methylimidazo[1,2-a]pyridin-7-yl)-1H-indol-5-yl)piperidin-1-yl)-3-methoxypropan-1-ol] | 1000 to 50000 | 100 to 1000 | 100 to 1000
7 | CC(C)c1c(-c2ccn3nccc3n2)[nH]c2ccc(C3CCNCC3)cc12 [Example 193, 5-(3-isopropyl-5-(piperidin-4-yl)-1H-indol-2-yl)pyrazolo[1,5-a]pyrimidine] | 100 to 1000 | 100 to 1000 | 1000 to 50000
8 | CC(C)c1c(-c2cnc3ccnn3c2)[nH]c2ccc(C3CCN(C(=O)CN(C)C)CC3)cc12 [Example 502, 2-(dimethylamino)-1-(4-(3-isopropyl-2-(pyrazolo[1,5-a]pyrimidin-6-yl)-1H-indol-5-yl)piperidin-1-yl)ethan-1-one] | 1000 to 50000 | > 3130 | 100 to 1000
9 | Cc1cc(-c2[nH]c3ccc(C4CCN(CC(=O)N(C)C)CC4)cc3c2C(C)C)cc2ccnn12 [Example 442, 2-(4-(3-isopropyl-2-(7-methylpyrazolo[1,5-a]pyridin-5-yl)-1H-indol-5-yl)piperidin-1-yl)-N,N-dimethylacetamide] | < 100 | < 100 | 1000 to 50000
10 | CCOc1cc(-c2[nH]c3ccc(C4CCN(C(=O)CN(C)C)CC4)cc3c2C(C)C)cc2nc(C)nn12 [Example 497, 2-(dimethylamino)-1-(4-(2-(5-ethoxy-2-methyl-[1,2,4]triazolo[1,5-a]pyridin-7-yl)-3-isopropyl-1H-indol-5-yl)piperidin-1-yl)ethan-1-one] | < 100 | < 100 | 1000 to 50000
11 | COc1cc(-c2[nH]c3ccc(C4CCN(CC(=O)N(C)C)CC4)cc3c2C(C)C)cc2nccn12 [Example 357, 2-(4-(3-isopropyl-2-(5-methoxyimidazo[1,2-a]pyridin-7-yl)-1H-indol-5-yl)piperidin-1-yl)-N,N-dimethylacetamide] | 100 to 1000 | 100 to 1000 | 100 to 1000
12 | Cc1cc(-c2[nH]c3ccc(C4CCN(C(=O)[C@@H]5C[C@@H](O)CN5)CC4)cc3c2C(C)C)cc2ncnn12 [Example 537, ((2S,4R)-4-hydroxypyrrolidin-2-yl)(4-(3-isopropyl-2-(5-methyl-[1,2,4]triazolo[1,5-a]pyridin-7-yl)-1H-indol-5-yl)piperidin-1-yl)methanone] | < 100 | < 100 | 1000 to 50000
13 | CC(C)c1c(-c2cnc3ccnn3c2)[nH]c2ccc(C3CCN(C(=O)C[C@H](C)O)CC3)cc12 [Example 595, (S)-3-hydroxy-1-(4-(3-isopropyl-2-(pyrazolo[1,5-a]pyrimidin-6-yl)-1H-indol-5-yl)piperidin-1-yl)butan-1-one] | > 3130 | > 3130 | > 50000
14 | CC(C)c1c(-c2ccc3nccn3n2)[nH]c2ccc(C3CCNCC3)cc12 [Example 27, 6-(3-isopropyl-5-(piperidin-4-yl)-1H-indol-2-yl)imidazo[1,2-b]pyridazine] | < 100 | < 100 | 1000 to 50000
